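Briefly, cells in 96-well plates were exposed to five compound concentrations for 48 h, and endpoints were estimated by linear interpolation. GI50 is the concentration that inhibits growth by half. TGI: total growth inhibition.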 Bounds are passed on as bounds.

Assay in all cases: NCI tumour cell line growth inhibition, 48 h
The test system of experiment [1] is COLO 205 colon.
Experiment [2] deals with HL-60(TB) leukemia.
Experiment [3] deals with HOP-62 NSCLC.
Experiment [4] concerns IGROV1 ovarian.
Experiment [5] concerns K-562 leukemia.
Experiment [6] concerns LOX IMVI melanoma.
The subject of experiment [7] is NCI-H460 lung.
Experiment [8] deals with OVCAR-8 ovarian.
Experiment [9] relates to SF-268 CNS.
Experiment [10] deals with SK-MEL-28 melanoma.

With `O=C(c1ccc([N+](=O)[O-])cc1[N+](=O)[O-])N(/N=C/C=C/c1ccccc1)c1nnc(-c2ccccc2)c(-c2ccccc2)n1`, the TGI in experiment [1] was more than 100 µM; in experiment [2], 51.6 µM; in experiment [3], more than 100 µM; in [4], more than 100 µM; in [5] it was 57.3 µM; in [6], more than 100 µM. For the same molecule, the TGI in experiment [7] is more than 100 µM; in experiment [8], 67.8 µM; in experiment [9], more than 100 µM; in [10], 68.6 µM.

Turning to `C=CC12CCN(CC1)C(C(O)c1ccnc3ccc(OC)cc13)C2` (stereo not given), the GI50 in [1] is 94.8 µM; in experiment [2], more than 100 µM; in [3] it was more than 100 µM; in [4] it was more than 100 µM; in experiment [5], more than 100 µM; in experiment [6] it was 15.4 µM. In addition, the GI50 was more than 100 µM in experiment [7], more than 100 µM in experiment [8], more than 100 µM in experiment [9] and 79.8 µM in [10]. In addition, the TGI in experiment [1], in experiment [2], in [3], in [4], in [5] and in [6] was more than 100 µM in each case. The TGI in experiment [7], in [8], in [9] and in experiment [10] was more than 100 µM each time.

For `O=C(O)c1ccc(CNCc2ccccc2)cc1`, the TGI in [1], in experiment [2], in [3], in experiment [4], in experiment [5] and in experiment [6] was more than 100 µM throughout. The TGI in experiment [7], in experiment [8], in experiment [9] and in [10] was more than 100 µM throughout.

As for `CC(C)C1CN(C(=O)OCc2ccccc2)C2N1C(=O)C2(C)OCc1ccccc1` (stereo not given), the TGI was 37.2 µM in [1]; 66.9 µM in experiment [2]; more than 100 µM in [3]; more than 100 µM in [4]; more than 100 µM in [5]; more than 100 µM in experiment [6]. Besides, the TGI in experiment [7], in [8], in experiment [9] and in experiment [10] was more than 100 µM throughout.

As for `CCC(C)(C)n1c(C)nc2c1C(=O)c1ccccc1C2=O`, the TGI was 46.2 µM in experiment [1]; 47.9 µM in experiment [2]; more than 100 µM in [3]; more than 100 µM in experiment [4]; more than 100 µM in experiment [5]; 47.3 µM in experiment [6]. Further, the TGI in experiment [7] was 29 µM; in experiment [8], more than 100 µM; in experiment [9], more than 100 µM; in [10] it was more than 100 µM.

For `O=c1[nH]c(O)c(C=Nc2ccc(-c3nc4ccccc4o3)cc2)c(=O)[nH]1`, the GI50 in [1] is 23.2 µM; in [2], 81.9 µM; in experiment [3], more than 100 µM; in [4], more than 100 µM; in experiment [5], 35 µM; in experiment [6], 25.3 µM. In addition, the GI50 in [7] is more than 100 µM; in experiment [8], 25.8 µM; in experiment [9], more than 100 µM; in [10], 16.6 µM. The TGI in experiment [1] was more than 100 µM; in experiment [2], more than 100 µM; in [3], more than 100 µM; in experiment [4], more than 100 µM; in experiment [5] it was more than 100 µM; in [6], 58.9 µM. Also, the TGI was more than 100 µM in experiment [7], more than 100 µM in experiment [8], more than 100 µM in experiment [9] and 47 µM in experiment [10].

On to `COC(=O)c1c(C)cc(OC)c(C/C=C(\C)CCCc2coc(C=C(C)C)c2)c1OC`, for which the TGI in experiment [1], in experiment [2], in [3], in experiment [4], in experiment [5] and in [6] was more than 100 µM throughout. For the same molecule, the TGI in [7], in [8], in [9] and in [10] was more than 100 µM in each case.

Regarding `COC(=O)/C=C/c1cc(OC(C)=O)c2c(c1)C(C(=O)OC)C(c1ccc(OC(C)=O)c(OC(C)=O)c1)O2` (stereo not given), the GI50 in experiment [1] was 3.43 µM; in [2] it was 0.0273 µM; in [3], 0.438 µM; in [4] it was 0.589 µM; in experiment [5] it was 0.0405 µM; in experiment [6], 0.0597 µM. In addition, the GI50 in experiment [7] is 1.03 µM; in experiment [8], 0.224 µM; in experiment [9], 0.617 µM; in experiment [10], 0.905 µM. Besides, the TGI in [1] was more than 50.6 µM; in [2], 0.114 µM; in experiment [3], more than 100 µM; in experiment [4], more than 100 µM; in experiment [5], more than 100 µM; in [6] it was more than 83.3 µM. Further, the TGI was 13.6 µM in experiment [7], more than 72.9 µM in experiment [8], more than 100 µM in [9] and 59.7 µM in experiment [10].
